Measured values reported in PMC2810230, “Antiplasmodial Activities of Homogentisic Acid Derivative Protein Kinase Inhibitors Isolated from a Vanuatu Marine Sponge Pseudoceratina sp” (Marine Drugs, 2009).
Where two headings read alike, the source gives them in different places.

Key:
[1] = molecular target: Pfnek-1 (Plasmodium falciparum, UniProt Q8I5D5); test: Pfnek-1 protein kinase assay (33P incorporation in β-casein); type: biochemical
Procedure: A GST-Pfnek-1 fusion protein was purified from the Escherichia coli BL21 strain carrying a Pfnek-1 expression plasmid harbouring an ampicillin resistance cassette (bacteria kindly provided by D. Dorin, INSERM 511) as described by Dorin et al.. Pfnek-1 kinase activity was determined by measuring the ^33P incorporation in ß-caseine using γ[^33P]-ATP.
Briefly, test compounds were dissolved in DMSO and diluted in 20 mM Tris, pH 7.5 20 mM MgCl2, 10 mM NaF and 10 mM ATP. β-casein (3 mg/mL) and γ[^33P]-ATP were added prior to the addition of Pfnek-1 to start the kinase reaction. Approximately 5 μCi of γ[^33P]-ATP was used per reaction. After incubation at 30 °C for 30 min, each solution was blotted on a phosphocellulose filter paper (P81 Whatman-cation exchange chromatography paper). After four washes with 1% H3PO4 at, the remaining radioactivity was measured using a liquid scintillation analyzer Packard 1600TR. The IC50 is defined as the concentration of compound which inhibits 50% of enzyme activity compared to the control (reaction in the absence of inhibitor).

[2] = test system: chloroquine-resistant Plasmodium falciparum strain FcB1; test: Activity against erythrocytic stages of cultured P. falciparum (LDH assay); type: cell-based; conditions: for IC50: read-out: FCB1 of P. falciparum IC50; for Antiplasmodial activity against FcB1 P. falciparum (in words): in vitro
Procedure: The antiplasmodial activity was studied in vitro against the chloroquine-resistant Plasmodium falciparum strain FcB1 by a micromethod using the lactate deshydrogenase (LDH) assay (Makler and Hinrichs). Parasites were cultivated using the method of Trager and Jensen. Erythrocytes infected with P. falciparum (ring stage, 1% of parasitaemia) were re-suspended in complete culture medium at a haematocrit of 1.5%. The suspension was distributed in 96-well microtitre plates (200 μL per well). Drug testing was performed in triplicate. For each assay, a parasite culture was incubated with the drug for 48 h in 5% CO2 at 95% relative humidity, and frozen until the biochemical assay could be run. After defrosting, a 20 μL sub-sample of the contents of each well was mixed with 100 μL of a substrate solution containing 20 mg/mL of lithium L-lactate (Sigma), 5.5 mg/mL of TRIS (Sigma), and 3.7 mg/mL of 3-acetylpyridine adenine dinucleotide (APAD; Sigma), in the well of another microtitre plate. After incubation for 30 min, 25 μL of a mixture of NBT (1.6 mg/mL; Sigma) and PES (0.1 mg/mL; Sigma) were added to each well. After a further 35 min of incubation, the reaction was stopped by the addition of 25% acetic acid (25 μL per well). Accumulation of the reduced form of APAD was measured at λ = 650 nm, using a spectrophotometer (microplate reader, Metertech). IC50 values were determined graphically in a concentration versus percent inhibition curve.

[3] = test system: Escherichia coli; test: Antibacterial disc growth inhibition test, E. coli; type: cell-based
Procedure: Activity was evaluated by the standard […] with human pathogenic Staphylococcus aureus and Escherichia coli at 100 μg/disc for a disc of 6 mm diameter (Table 3). […] Bromotyrosine metabolites have already been reported as antibacterials.

[4] = test system: Staphylococcus aureus; test: Antibacterial disc growth inhibition test, S. aureus; type: cell-based
[5] = test system: chloroquine-resistant Plasmodium falciparum strain FcB1; design: method as in PMID 15124089; conditions: isolated from leaves of Glossocalyx brevipes; cited from earlier work
[6] = GST-Pfnek-1, β-casein substrate, 30 °C, 30 min
[7] = FcB1 strain, 48 h incubation, LDH readout
[8] = 100 μg/disc, disc of 6 mm diameter
[9] = Plasmodium falciparum, FcB1 strain, 48 h incubation, LDH readout

Chain of Pfnek-1 (Q8I5D5 entry or part of it): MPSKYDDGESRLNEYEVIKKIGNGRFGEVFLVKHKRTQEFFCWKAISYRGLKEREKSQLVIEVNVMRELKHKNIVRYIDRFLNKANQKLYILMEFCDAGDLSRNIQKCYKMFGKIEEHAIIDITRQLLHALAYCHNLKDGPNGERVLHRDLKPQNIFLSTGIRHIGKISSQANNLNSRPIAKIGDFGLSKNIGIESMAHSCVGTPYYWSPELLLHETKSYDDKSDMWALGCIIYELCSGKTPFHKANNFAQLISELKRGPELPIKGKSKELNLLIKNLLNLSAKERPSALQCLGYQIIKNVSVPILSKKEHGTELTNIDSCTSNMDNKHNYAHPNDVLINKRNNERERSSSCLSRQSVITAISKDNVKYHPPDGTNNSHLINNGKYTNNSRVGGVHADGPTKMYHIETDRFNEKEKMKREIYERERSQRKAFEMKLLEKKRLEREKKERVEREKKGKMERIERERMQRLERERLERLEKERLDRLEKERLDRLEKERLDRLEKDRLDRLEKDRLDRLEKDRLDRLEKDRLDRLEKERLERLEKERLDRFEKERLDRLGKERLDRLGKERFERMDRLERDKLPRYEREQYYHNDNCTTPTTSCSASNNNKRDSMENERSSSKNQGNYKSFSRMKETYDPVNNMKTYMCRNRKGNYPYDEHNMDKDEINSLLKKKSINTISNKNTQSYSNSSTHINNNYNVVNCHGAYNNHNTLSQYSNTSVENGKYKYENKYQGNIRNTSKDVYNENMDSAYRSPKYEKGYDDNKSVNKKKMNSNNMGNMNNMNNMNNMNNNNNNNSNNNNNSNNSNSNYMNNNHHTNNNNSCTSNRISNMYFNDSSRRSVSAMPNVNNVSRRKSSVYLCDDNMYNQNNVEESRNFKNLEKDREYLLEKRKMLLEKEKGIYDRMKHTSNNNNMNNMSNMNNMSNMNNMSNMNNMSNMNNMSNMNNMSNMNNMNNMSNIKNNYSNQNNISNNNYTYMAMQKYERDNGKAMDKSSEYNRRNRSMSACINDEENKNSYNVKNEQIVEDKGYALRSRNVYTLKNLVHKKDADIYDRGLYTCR

Molecule	Pfnek-1 inhibitory activity (in words) [1]	IC50 [1, 6] [µM]	IC50 [2, 9] [µM]	further results
Methyl (3,6-dibenzoyl-4-bromophenyl)acetate [Compound 13b]	inactivity	> 50	–	IC50 [2, 7]: 13 µM
COC(=O)Cc1c(O)cc(Br)c(O)c1Br [Compound 4a, Methyl (2,4-dibromo-3,6-dihydroxyphenyl)acetate]	most active	~1.8	12	Antibacterial activity against E. coli (in words) ([3]; 100 μg/disc): inactive; Growth inhibition diameter, E. coli [3, 8]: 0 mm; Pfnek-1 activity of 4a relative to 4b [1]: five times more active; Antiplasmodial activity against FcB1 P. falciparum (in words) [2]: moderately active; Antibacterial activity against S. aureus (in words) ([4]; 100 μg/disc): inactive; Growth inhibition diameter, S. aureus [4, 8]: 0 mm
COC(=O)Cc1cc(O)ccc1O [Compound 8, Methyl (2,5-dihydroxyphenyl)acetate]	inactive	> 50	36	–
O=C1Cc2cc(O)ccc2O1 [Compound 5, 5-Hydroxy-3H-benzofuran-2-one]	–	–	29	IC50 [1]: > 50 µM
O=C1Cc2c(cc(Br)c(O)c2Br)O1 [Compound 6a, 4,6-Dibromo-5-hydroxy-3H-benzofuran-2-one]	inactivity	> 50	35	–
CC(C)=CCCC(C)=CCC1(CC(=O)O)CC(O)C=CC1=O (stereo not drawn) [2-(1′β-geranyl-5′β-hydroxy-2′-oxocyclohex-3′-enyl)acetic acid]	–	–	–	Activity against P. falciparum (in words) [5]: modest activities
COC1=C(Br)[C@H](O)[C@@]2(C=C1Br)CC(C(=O)NCCCOc1c(Br)cc(C(O)CNC(=O)C3=NO[C@]4(C=C(Br)C(OC)=C(Br)[C@@H]4O)C3)cc1Br)=NO2 (stereo partly shown) [Compound 2, 11-deoxyfistularin-3]	inactive	> 50	> 100	Growth inhibition diameter, E. coli [3, 8]: 0 mm; Growth inhibition diameter, S. aureus [4, 8]: 0 mm
Methyl (3,6-dibenzoyl-2,4-dibromophenyl)acetate [Compound 13a]	inactivity	> 50	–	IC50 [2, 7]: 22.5 µM
COC(=O)Cc1cc(O)c(Br)cc1O [Compound 4b, Methyl (4-bromo-3,6-dihydroxyphenyl)acetate]	moderately active	10	26	–
O=C1Cc2cc(O)c(Br)cc2O1 [Compound 6b, 6-bromo-5-hydroxy-3H-benzofuran-2-one]	inactivity	> 50	17	–
COC1=C(Br)[C@H](O)[C@@]2(C=C1Br)CC(C(=O)NCCCOc1c(Br)cc(CCNC(=O)C3=NO[C@]4(C=C(Br)C(OC)=C(Br)[C@@H]4O)C3)cc1Br)=NO2	inactive	> 50	–	Antibacterial activity against E. coli (in words) ([3]; 100 μg/disc): strong antibacterial activities; Growth inhibition diameter, E. coli [3, 8]: 16 mm; IC50 ([2]; Plasmodium falciparum, FCB1, 48 h): > 100 µM; Antibacterial activity against S. aureus (in words) ([4]; 100 μg/disc): strong antibacterial activities; Growth inhibition diameter, S. aureus [4, 8]: 14 mm
COC(=O)Cc1cc(Br)c(O)c(Br)c1O [Compound 12, Methyl (3,5-dibromo-2,4-dihydroxyphenyl)acetate]	inactive	> 50	> 100	Antiplasmodial activity against FcB1 P. falciparum (in words) [2]: inactive
O=C(N[C@H](CO)[C@H](O)c1ccc([N+](=O)[O-])cc1)C(Cl)Cl [chloramphenicol, reference compound]	–	–	–	Growth inhibition diameter, E. coli ([3]; 30 μg/disc): 17 mm
COC(=O)CC1(CC=C(C)CCC=C(C)C)CC(O)C=CC1=O (stereo not drawn) [methyl 2-(1′β-geranyl-5′β-hydroxy-2′-oxocyclohex-3-enyl)acetate]	–	–	–	Activity against P. falciparum (in words) [5]: modest activities
gentamycin [reference compound]	–	–	–	Growth inhibition diameter, S. aureus ([4]; 10 μg/disc): 16 mm
